Measured values published in PubChem BioAssay AID1259407 (Chemical Carcinogenesis Research Information System (CCRIS), 2018).
Activity calls are given as the source filed them. How the calls were made is not given here.

Test system: CCRIS mutagenicity, Ames/micronucleus/aberration tests
Assay: CCRIS mutagenicity studies

Q: `CCOc1ccc(NC(C)=O)cc1` was tested. Which mutagenic call (End Point: IN VITRO MICRONUCLEUS, Test System: CHL/IU CELLS, Metabolic Activation: RAT, LIVER, S-9, PHENOBARBITAL AND 5,6-BENZOFLAVONE) did it give?
A: inactive; negative

Q: And the mutagenic call (End Point: IN VITRO MICRONUCLEUS, Test System: RAT KIDNEY FIBROBLAST NRK-49F, Metabolic Activation: NONE)?
A: inactive; negative

Q: And the mutagenic call (Test System: AMES SALMONELLA TYPHIMURIUM, Strain/Indicator: TA98, Metabolic Activation: GUINEA PIG, LIVER, S-9, PCB, Method: PREINCUBATION)?
A: inactive; negative

Q: What about the mutagenic call (Test System: AMES SALMONELLA TYPHIMURIUM, Strain/Indicator: TA98, Metabolic Activation: HAMSTER, LIVER, S-9, AROCLOR 1254, Method: STANDARD PLATE) of the same compound?
A: inactive; negative

Q: And the mutagenic call (Test System: AMES SALMONELLA TYPHIMURIUM, Strain/Indicator: TA98, Metabolic Activation: HAMSTER, LIVER, S-9, PCB, Method: PREINCUBATION)?
A: inactive; negative

Q: What about the mutagenic call (Test System: AMES SALMONELLA TYPHIMURIUM, Strain/Indicator: TA98, Metabolic Activation: MOUSE, LIVER, S-9, AROCLOR 1254, Method: STANDARD PLATE) of the same compound?
A: inactive; negative

Q: And the mutagenic call (Test System: AMES SALMONELLA TYPHIMURIUM, Strain/Indicator: TA98, Metabolic Activation: MOUSE, LIVER, S-9, PCB, Method: PREINCUBATION)?
A: inactive; negative

Q: What about the mutagenic call (Test System: AMES SALMONELLA TYPHIMURIUM, Strain/Indicator: TA98, Metabolic Activation: NONE, Method: PREINCUBATION) of the same compound?
A: inactive; negative

Q: And the mutagenic call (Test System: AMES SALMONELLA TYPHIMURIUM, Strain/Indicator: TA98, Metabolic Activation: NONE, Method: STANDARD PLATE)?
A: inactive; negative

Q: What about the mutagenic call (Test System: AMES SALMONELLA TYPHIMURIUM, Strain/Indicator: TA98, Metabolic Activation: RAT, LIVER, S-9, AROCLOR 1254, Method: STANDARD PLATE) of the same compound?
A: inactive; negative

Q: And the mutagenic call (Test System: AMES SALMONELLA TYPHIMURIUM, Strain/Indicator: TA98, Metabolic Activation: RAT, LIVER, S-9, PCB, Method: PREINCUBATION)?
A: inactive; negative

Q: What about the mutagenic call (Test System: AMES SALMONELLA TYPHIMURIUM, Strain/Indicator: TA100, Metabolic Activation: GUINEA PIG, LIVER, S-9, PCB, Method: PREINCUBATION) of the same compound?
A: active; positive

Q: What about the mutagenic call (Test System: AMES SALMONELLA TYPHIMURIUM, Strain/Indicator: TA100, Metabolic Activation: HAMSTER, LIVER, S-9, AROCLOR 1254, Method: STANDARD PLATE) of the same compound?
A: active; positive

Q: What about the mutagenic call (Test System: AMES SALMONELLA TYPHIMURIUM, Strain/Indicator: TA100, Metabolic Activation: HAMSTER, LIVER, S-9, KANECHLOR 400, Method: PREINCUBATION) of the same compound?
A: active; positive

Q: What about the mutagenic call (Test System: AMES SALMONELLA TYPHIMURIUM, Strain/Indicator: TA100, Metabolic Activation: HAMSTER, LIVER, S-9, PCB, Method: PREINCUBATION) of the same compound?
A: active; positive

Q: What about the mutagenic call (Test System: AMES SALMONELLA TYPHIMURIUM, Strain/Indicator: TA100, Metabolic Activation: HAMSTER, LIVER, S-9, Method: PREINCUBATION) of the same compound?
A: inactive; negative

Q: What about the mutagenic call (Test System: AMES SALMONELLA TYPHIMURIUM, Strain/Indicator: TA100, Metabolic Activation: MOUSE, LIVER, S-9, AROCLOR 1254, Method: STANDARD PLATE) of the same compound?
A: inactive; negative

Q: And the mutagenic call (Test System: AMES SALMONELLA TYPHIMURIUM, Strain/Indicator: TA100, Metabolic Activation: MOUSE, LIVER, S-9, PCB, Method: PREINCUBATION)?
A: inactive; negative

Q: What about the mutagenic call (Test System: AMES SALMONELLA TYPHIMURIUM, Strain/Indicator: TA100, Metabolic Activation: NONE, Method: PREINCUBATION) of the same compound?
A: inactive; negative

Q: And the mutagenic call (Test System: AMES SALMONELLA TYPHIMURIUM, Strain/Indicator: TA100, Metabolic Activation: NONE, Method: STANDARD PLATE)?
A: inactive; negative

Q: And the mutagenic call (Test System: AMES SALMONELLA TYPHIMURIUM, Strain/Indicator: TA100, Metabolic Activation: RAT, LIVER, S-9, AROCLOR 1254, Method: STANDARD PLATE)?
A: inactive; negative

Q: And the mutagenic call (Test System: AMES SALMONELLA TYPHIMURIUM, Strain/Indicator: TA100, Metabolic Activation: RAT, LIVER, S-9, KANECHLOR 400, Method: PREINCUBATION)?
A: inactive; negative

Q: What about the mutagenic call (Test System: AMES SALMONELLA TYPHIMURIUM, Strain/Indicator: TA100, Metabolic Activation: RAT, LIVER, S-9, PCB, Method: PREINCUBATION) of the same compound?
A: inactive; negative

Q: What about the mutagenic call (Test System: AMES SALMONELLA TYPHIMURIUM, Strain/Indicator: TA100, Metabolic Activation: RAT, LIVER, S-9, Method: PREINCUBATION) of the same compound?
A: inactive; negative

Q: And the mutagenic call (Test System: AMES SALMONELLA TYPHIMURIUM, Strain/Indicator: TA1535, Metabolic Activation: HAMSTER, LIVER, S-9, AROCLOR 1254, Method: STANDARD PLATE)?
A: inactive; negative

Q: What about the mutagenic call (Test System: AMES SALMONELLA TYPHIMURIUM, Strain/Indicator: TA1535, Metabolic Activation: MOUSE, LIVER, S-9, AROCLOR 1254, Method: STANDARD PLATE) of the same compound?
A: inactive; negative

Q: And the mutagenic call (Test System: AMES SALMONELLA TYPHIMURIUM, Strain/Indicator: TA1535, Metabolic Activation: NONE, Method: STANDARD PLATE)?
A: inactive; negative

Q: And the mutagenic call (Test System: AMES SALMONELLA TYPHIMURIUM, Strain/Indicator: TA1535, Metabolic Activation: RAT, LIVER, S-9, AROCLOR 1254, Method: STANDARD PLATE)?
A: inactive; negative

Q: What about the mutagenic call (Test System: AMES SALMONELLA TYPHIMURIUM, Strain/Indicator: TA1537, Metabolic Activation: HAMSTER, LIVER, S-9, AROCLOR 1254, Method: STANDARD PLATE) of the same compound?
A: inactive; negative

Q: What about the mutagenic call (Test System: AMES SALMONELLA TYPHIMURIUM, Strain/Indicator: TA1537, Metabolic Activation: MOUSE, LIVER, S-9, AROCLOR 1254, Method: STANDARD PLATE) of the same compound?
A: inactive; negative

Q: What about the mutagenic call (Test System: AMES SALMONELLA TYPHIMURIUM, Strain/Indicator: TA1537, Metabolic Activation: NONE, Method: STANDARD PLATE) of the same compound?
A: inactive; negative

Q: What about the mutagenic call (Test System: AMES SALMONELLA TYPHIMURIUM, Strain/Indicator: TA1537, Metabolic Activation: RAT, LIVER, S-9, AROCLOR 1254, Method: STANDARD PLATE) of the same compound?
A: inactive; negative

Q: And the mutagenic call (Test System: AMES SALMONELLA TYPHIMURIUM, Strain/Indicator: TA1538, Metabolic Activation: HAMSTER, LIVER, S-9, AROCLOR 1254, Method: STANDARD PLATE)?
A: inactive; negative

Q: And the mutagenic call (Test System: AMES SALMONELLA TYPHIMURIUM, Strain/Indicator: TA1538, Metabolic Activation: MOUSE, LIVER, S-9, AROCLOR 1254, Method: STANDARD PLATE)?
A: inactive; negative

Q: And the mutagenic call (Test System: AMES SALMONELLA TYPHIMURIUM, Strain/Indicator: TA1538, Metabolic Activation: NONE, Method: STANDARD PLATE)?
A: inactive; negative

Q: What about the mutagenic call (Test System: AMES SALMONELLA TYPHIMURIUM, Strain/Indicator: TA1538, Metabolic Activation: RAT, LIVER, S-9, AROCLOR 1254, Method: STANDARD PLATE) of the same compound?
A: inactive; negative

Q: What about the mutagenic call (Test System: CHINESE HAMSTER V-79, Strain/Indicator: V-79/6-THIOGUANINE, Metabolic Activation: HAMSTER, LIVER, S-9, AROCLOR 1254, Method: SUSPENSION/PLATE) of the same compound?
A: active; positive

Q: And the mutagenic call (Test System: CHINESE HAMSTER V-79, Strain/Indicator: V-79/6-THIOGUANINE, Metabolic Activation: NONE, Method: SUSPENSION/PLATE)?
A: inactive; negative

Q: What about the mutagenic call (Test System: CHINESE HAMSTER V-79, Strain/Indicator: V-79/6-THIOGUANINE, Metabolic Activation: RAT, LIVER, S-9, PHENOBARBITAL AND BETA-NAPHTHOFLAVONE, Method: SUSPENSION/PLATE) of the same compound?
A: inactive; negative

Q: And the mutagenic call (Test System: E. COLI, Strain/Indicator: WP2 UVRA, Metabolic Activation: HAMSTER, LIVER, S-9, AROCLOR 1254, Method: STANDARD PLATE)?
A: inactive; negative

Q: And the mutagenic call (Test System: E. COLI, Strain/Indicator: WP2 UVRA, Metabolic Activation: HAMSTER, LIVER, S-9, Method: STANDARD PLATE)?
A: inactive; negative

Q: And the mutagenic call (Test System: E. COLI, Strain/Indicator: WP2 UVRA, Metabolic Activation: MOUSE, LIVER, S-9, AROCLOR 1254, Method: STANDARD PLATE)?
A: inactive; negative

Q: What about the mutagenic call (Test System: E. COLI, Strain/Indicator: WP2 UVRA, Metabolic Activation: MOUSE, LIVER, S-9, Method: STANDARD PLATE) of the same compound?
A: inactive; negative

Q: What about the mutagenic call (Test System: E. COLI, Strain/Indicator: WP2 UVRA, Metabolic Activation: NONE, Method: STANDARD PLATE) of the same compound?
A: inactive; negative

Q: And the mutagenic call (Test System: E. COLI, Strain/Indicator: WP2 UVRA, Metabolic Activation: RAT, LIVER, S-9, AROCLOR 1254, Method: STANDARD PLATE)?
A: inactive; negative

Q: What about the mutagenic call (Test System: E. COLI, Strain/Indicator: WP2 UVRA, Metabolic Activation: RAT, LIVER, S-9, Method: STANDARD PLATE) of the same compound?
A: inactive; negative

Q: Which results are given for `COCCc1ccc(OCC(O)CN(N=O)C(C)C)cc1` (stereo unspecified)?
A: mutagenic call (Test System: UDS HUMAN HEPATOCYTES, Strain/Indicator: THY INCORP, Metabolic Activation: NONE, Method: AUTORADIOGRAPHY): active; positive; mutagenic call (Test System: UDS RAT HEPATOCYTES, Strain/Indicator: THY INCORP, Metabolic Activation: NONE, Method: AUTORADIOGRAPHY): active; positive

Q: Which mutagenic call (Test System: AMES SALMONELLA TYPHIMURIUM, Strain/Indicator: TA98, Metabolic Activation: RAT, LIVER, S-9, PHENOBARBITAL AND BETA-NAPHTHOFLAVONE, Method: PREINCUBATION) does the source give for `COc1cc2c(cc1OC)-c1c3c(cc4c1[C@H](C2)N(C)CC4)OCO3` here?
A: active; positive

Q: And the mutagenic call (Test System: AMES SALMONELLA TYPHIMURIUM, Strain/Indicator: TA100, Metabolic Activation: RAT, LIVER, S-9, PHENOBARBITAL AND BETA-NAPHTHOFLAVONE, Method: PREINCUBATION)?
A: active; positive

Q: Which mutagenic call (Test System: E. COLI WP2, Strain/Indicator: WP2, Metabolic Activation: NONE, Method: STANDARD PLATE) does the source give for `NNC(=O)NC(=O)NN` here?
A: active; positive
